Source: patent US20240368565A1, “COMPLEMENTATION-BASED TAGS AND REPORTERS FOR DUAL-MODALITY LABELING” (Promega Corporation, priority 2023, published 2024)

Tested on: HeLa cells
Assay: Flow cytometry fold response, reporter variants co-expressed with EGFP-HaloTag[3-19]-5×Gly/Ser-VS-HiBiT
Assay type: cell-based
Details: 100 nM ligand, compared to the less fluorogenic ligand JF646
Method: (§1) FIG. 95. […] Approximately 48 hours post-transfection, the cells were labeled with 100 nM JF646 HaloTag® ligand. Following a 1-hour incubation with the ligand, the cells were washed with DPBS media for 30 minutes (2× for 15 minutes each). Subsequently, the cells were lifted, and their fluorescence activity was measured using flow cytometry. […] The fold response of each assay condition was calculated as the ratio of mean fluorescence signal in the second quadrant (double positive) by the mean fluorescence signal in the third (JF646+) quadrant.
as §1, with “FIG. 96.” for “FIG. 95.”, “nM JF635” for “nM JF646”

C[Si]1(C)c2cc(N3CC(F)C3)ccc2C2(OC(=O)c3ccc(C(=O)NCCOCCOCCCCCCCl)cc32)c2ccc(N3CC(F)C3)cc21 [JF635]
Fluorescence fold response: fold responses are enhanced
